Data on ten compounds can be found in patent US20080176923A1, “Proline Derivatives Used as Pharmaceutical Active Ingredients for the Treatment of Tumors” (priority 2003, published 2008).

What all share (format): cell-based
In assay [1] the test system is BxPC3 pancreas tumor cell line. Put plainly: tumor cell proliferation test (EZ4U tetrazolium), BxPC3. The note with it: for inhibition at 200 µg/mL / inhibition at 400 µg/mL / IC50: Homo sapiens; for inhibition at 200 µg/mL / inhibition at 400 µg/mL: BXPC-3, 96 h, 4 days, read-out: inhibition of cellular proliferation; for inhibition at 200 µg/mL: BxPC3, 200 μg/ml; for inhibition at 400 µg/mL: BxPC3, 400 μg/ml; for IC50: BXPC-3, read-out: IC50 BxPC3. Here is the method:
(§1) The compounds of the invention were tested using the pancreas tumor cell lines MIYPaCa2 and BxPC3, the breast cancer cell lines MDA-MB-435 and BT20, as well as the colon cancer cell lines Colo205 and HT29. The cells were placed in culture medium (RPMI-1640 with 10% fetal calf serum and 4 mM glutamine) in 96-well microtiter plates to make 10,000 cells per well. The inventive components to be tested were diluted in microtiter plates according to the well-known procedure and incubated for 4 days under cell culture conditions (37° C., 5% CO2).
(§2) Following incubation, the proliferation was tested using a tetrazolium-based EZ4U kit from Biomedica (Vienna, Austria). The optical density (OD) of each well was determined by means of an ELISA Reader, and the control medium obtained was set to 100% (OD490 nm=0.5 to 1.5). The values in Table 1 are given in %, showing the inhibition of cellular proliferation, the concentration being 400 μg/ml (higher value) and 200 μg/ml (lower value).
(§3) In further tests, substances were dissolved in water, and their effect on the colon adenocarcinoma cell line Colo205 and pancreas adenocarcinoma cell line BxPC3 as targets was tested. The results obtained, in IC50 concentrations in μg/ml, are illustrated in Table 2.
(§4) Furthermore, (R)-(+)-α,α-diphenyl-2-pyrrolidinemethanol and (S)-(−)-α,α-diphenyl-2-pyrrolidinemethanol were tested. […] The results are given as IC50 (μg/ml).

Assay [2] deals with Colo205 colon cancer cell line. Put plainly: tumor cell proliferation test (EZ4U tetrazolium), Colo205. The note with it: for inhibition at 200 µg/mL / inhibition at 400 µg/mL / IC50: Homo sapiens; for inhibition at 200 µg/mL: Colo205, 200 μg/ml; for IC50: read-out: IC50 Colo205. Here is the method: as §1, §2, §3
(§5) A proliferation test—as described above—with an initial dilution of 400 μg/ml was carried out, either alone or in combination with 400, 200 or 100 μg of CHP. The cell lines used are illustrated in Table 3. […] Frequently, the proliferation is increased, or the inhibition achieved with specific substances is lower when using combined agents. The effect of CHP alone is shown on the left in the table, below each specified cell line, for the highest concentration of CHP (400 μg/ml).
as §4

The subject of assay [3] is BT20 breast cancer cell line. Put plainly: tumor cell proliferation test (EZ4U tetrazolium), BT20. Particulars: Homo sapiens, BT-20, 96 h, 4 days, read-out: inhibition of cellular proliferation; for inhibition at 200 µg/mL: BT20, 200 μg/ml; for inhibition at 400 µg/mL: BT20, 400 μg/ml. Here is the method: as §1, §2
For assay [4], the system named is MDA-MB435 breast cancer cell line. Description: tumor cell proliferation test (EZ4U tetrazolium), MDA-MB435. Particulars: Homo sapiens, MDA-MB-435, 96 h, 4 days, read-out: inhibition of cellular proliferation; for inhibition at 200 µg/mL: MDA-MB435, 200 μg/ml; for inhibition at 400 µg/mL: MDA-MB435, 400 μg/ml. Here is the method: as §1, §2
Assay [5] relates to MIA-PaCa2 pancreas tumor cell line. Description: tumor cell proliferation test (EZ4U tetrazolium), MIA-PaCa2. Particulars: Homo sapiens, MIA PaCa-2, 96 h, 4 days, read-out: inhibition of cellular proliferation; for inhibition at 200 µg/mL: MIA-PaCa2, 200 μg/ml; for inhibition at 400 µg/mL: MIA-PaCa2, 400 μg/ml. Here is the method: as §1, §2, §4
In assay [6] the test system is T47D breast cancer cell line. Put plainly: tumor cell proliferation test, T47D. Here is the method: as §1, §2, §5, §4
For assay [7], the system named is all 6 cell lines (MIA-PaCa2, Colo205, BxPC3, MDA-MB435, BT20, HT29). Description: tumor cell proliferation test, mean value for all 6 cell lines. The note with it: 400 μg/ml; read-out: inhibition; mean value±SEM for all 6 cell lines. How it is done: as §1, §2
The test system of assay [8] is HT29 colon cancer cell line. Description: tumor cell proliferation test (EZ4U tetrazolium), HT29. The note with it: Homo sapiens, HT-29, 96 h, 4 days, read-out: inhibition of cellular proliferation; for inhibition at 200 µg/mL: HT29, 200 μg/ml; for inhibition at 400 µg/mL: HT29, 400 μg/ml. Here is the method:
as §1, §2

Assay [9] relates to SW620 colon cancer cell line. Put plainly: tumor cell proliferation test, SW620. Here is the method:
as §1, §2, §5

Where [10] appears, read: COLO 205, 96 h, 4 days, read-out: inhibition of cellular proliferation.
Setting [11] is: COLO 205, 96 h, Colo205, 400 μg/ml, 4 days, read-out: inhibition of cellular proliferation.
Where [12] appears, read: COLO 205, substances dissolved in water.

Values after ≈ are worked out from the molar mass of the structure shown. Where two headings read alike, the source gives them in different places.

Consider “4-hydroxy-1,1-dimethylproline isobutyl ester iodide [Substance A2-01]”, for which the “IC50 BxPC3” value in [1] (substances dissolved in water) came out at 50 µg/mL. In assay [2] (substances dissolved in water), the “IC50 Colo205” value is >400 µg/mL.
As to `CN1CC(O)C[C@H]1C(=O)O` (stereo partly drawn) [Substance A0.21, 4-hydroxy-1-methylproline], the inhibition at 200 µg/mL in assay [3] worked out at 18.3%; in [4] it was 26.9%; in assay [5] it was 21.1%; in assay [1], 21.9%; in assay [2] (setting [10]), 21.1%; in assay [8] it was 4.8%. Besides, the inhibition at 400 µg/mL in assay [3] turned out to be 14.9%; in assay [4] it was 23.2%; in assay [5], 22.8%; in assay [1] it was 16.2%; in assay [6] (Homo sapiens, A0.21 400 μg/ml alone (Con), read-out: % inhibition of proliferation (minus signs)) it was 0.4%; in assay [7], 16.3 ± 2.7%. Besides, the inhibition at 400 µg/mL in assay [2] (setting [11]) was 16.3%; in assay [2] (COLO 205, Colo205, A0.21 400 μg/ml alone (Con), read-out: % inhibition of proliferation (minus signs)), 8.2%; in assay [8], 4.7%; in [9] (Homo sapiens, SW-620, A0.21 400 μg/ml alone (Con), read-out: % inhibition of proliferation (minus signs)) it was 5.2%. In addition, the “% inhibition of proliferation (minus signs)” value is given as −1.8% in assay [6] (A0.21 100 alone (Con)); −1.2% in assay [6] (A0.21 200 alone (Con)); −3.5% in assay [2] (Colo205, A0.21 100 alone (Con)); −4.0% in assay [2] (Colo205, A0.21 200 alone (Con)); −5.8% in [9] (A0.21 100 alone (Con)); −6.3% in [9] (A0.21 200 alone (Con)).
As a reminder, the IC50 is the midpoint of a concentration-inhibition curve. On to `CCOC(=O)C1CC(O)C[N+]1(C)C` (stereo not drawn) [Substance A1-01, 4-hydroxy-1,1-dimethylproline ethyl ester iodide], for which the IC50 in [1] (substances dissolved in water) is 70 µg/mL; in [2] (setting [12]), > 400 µg/mL.
As for `CCOC(=O)[C@@H]1CC(O)CN1C` (stereo partly drawn) [Substance A1.21, 4-hydroxy-1-methylproline ethyl ester], the inhibition at 200 µg/mL in assay [3] stood at 22.2%; in [4], 15.6%; in assay [5] it was 7.4%; in assay [1], 25%; in assay [2] (setting [10]), 23.7%; in assay [8], 7.3%. Moreover, the inhibition at 400 µg/mL in assay [3] was determined as 80.1%; in assay [4] it was 53.5%; in [5] it was 38.8%; in assay [1], 13.4%; in assay [7], 36.5 ± 11.4%; in assay [2] (setting [11]), 32.7%. Further, in [8], the inhibition at 400 µg/mL was 0.5%.
Take `CCOC(=O)[C@@H]1CC(OC(=O)Nc2ccccc2)CN1C` (stereo partly drawn) [Substance A1.23, 1-methyl-4-phenylaminocarbonyloxyproline ethyl ester]: the inhibition at 200 µg/mL in assay [3] was found to be 4.4%; in assay [4], 8.7%; in [5], 16%; in assay [1] it was 17.8%; in [2] (setting [10]), 17.2%; in assay [8], 8.5%. Besides, the inhibition at 400 µg/mL was 1.3% in assay [3]; 4.5% in assay [4]; 8.3% in [5]; 0% in assay [1]; < 8% in [7]; 7.3% in [2] (setting [11]). For the same compound, the inhibition at 400 µg/mL in assay [8] stood at 1.9%.
On to `CC(C)COC(=O)[C@@H]1CC(O)CN1C1CCCCC1` (stereo partly drawn) [Substance A2-03, 4-hydroxy-1-cyclohexylproline isobutyl ester], for which the IC50 in assay [1] (substances dissolved in water) was 50 µg/mL (≈ 186 µM); in assay [2] (setting [12]), 50 µg/mL.
With `Br.CC(C)COC(=O)[C@@H]1CC(O)CN1C(c1ccccc1)c1ccccc1` (stereo partly drawn) [Substance A2-04, 4-hydroxy-1-diphenylmethylproline isobutyl ester hydrobromide], the IC50 in assay [1] (substances dissolved in water) was determined as 12 µg/mL; in [2] (setting [12]), 6.2 µg/mL.
With `CC(C)COC(=O)[C@@H]1CC(O)CN1C` (stereo partly drawn) [Substance A2.21, 4-hydroxy-1-methylproline isobutyl ester], the inhibition at 200 µg/mL came to 5.2% in assay [3]; 4.5% in [4]; 4.5% in assay [5]; 18.2% in assay [1]; 14.1% in [2] (setting [10]); 4.1% in [8]. The inhibition at 400 µg/mL is 3.9% in [3]; 3.1% in [4]; 23.9% in [5]; 4.9% in assay [1]; < 8% in [7]; 10% in [2] (setting [11]). Moreover, the inhibition at 400 µg/mL in [8] amounted to 1.3%.
Take `CC(C)COC(=O)[C@@H]1CC(OC(=O)Nc2ccccc2)CN1C` (stereo partly drawn) [Substance A2.23, 1-methyl-4-phenylaminocarbonyloxyproline isobutyl ester]: the inhibition at 200 µg/mL in assay [3] was 0%; in [4], 5.5%; in assay [5], 14.2%; in assay [1] it was 15.4%; in assay [2] (setting [10]), 19.2%; in [8], -5%. The inhibition at 400 µg/mL in assay [3] is 0%; in [4], 8.6%; in assay [5], 0.3%; in assay [1] it was 2.1%; in [7], < 8%; in assay [2] (setting [11]), 14.1%. The inhibition at 400 µg/mL in assay [8] is -5.3%.
With `CCOC(=O)C1CC(O)CN1` [Substance A-1, cis-hydroxy-L-proline ethyl ester], the IC50 in assay [1] (substances dissolved in water) stood at 5 µg/mL (≈ 31.4 µM); in assay [2] (setting [12]), 50 µg/mL.
